Test results taken from BigSolDB 2.1.

Details: in water

C=CCC
Details	solubility (mole fraction)
293.15 K	9.53e-05
295.15 K	8.78e-05
298.15 K	7.97e-05
300.15 K	7.44e-05
303.15 K	6.77e-05
305.15 K	6.42e-05
308.15 K	5.96e-05
310.15 K	5.56e-05
313.15 K	5.24e-05
315.15 K	4.9e-05
318.15 K	4.63e-05
320.15 K	4.42e-05
323.15 K	4.12e-05
